Measured values reported in ChEMBL document CHEMBL5506020 (J Med Chem, 2024).
Calls of active or inactive are those of the source. The rule behind the calls is not given here.

Assays:
MV4-11 [1] = assay: Antiproliferative activity against human MV4-11 cells incubated for 120 hrs by Cell-Titer Glo assay; conditions: MV4-11, 120 h
[2] = biological target: Protein cereblon/Histone acetyltransferase p300 (Homo sapiens) (UniProt Q09472+Q96SW2); assay: PROTAC activity at CRBN/p300 in human MV4-11 cells assessed as p300 degradation at 10 to 50 nM incubated for 24 hrs by Western blotting analysis; format: cell-based; conditions: dose 10-50 nM
Chain of Protein cereblon/Histone acetyltransferase p300 (Homo sapiens) (Q09472 2-2414 limits assumed): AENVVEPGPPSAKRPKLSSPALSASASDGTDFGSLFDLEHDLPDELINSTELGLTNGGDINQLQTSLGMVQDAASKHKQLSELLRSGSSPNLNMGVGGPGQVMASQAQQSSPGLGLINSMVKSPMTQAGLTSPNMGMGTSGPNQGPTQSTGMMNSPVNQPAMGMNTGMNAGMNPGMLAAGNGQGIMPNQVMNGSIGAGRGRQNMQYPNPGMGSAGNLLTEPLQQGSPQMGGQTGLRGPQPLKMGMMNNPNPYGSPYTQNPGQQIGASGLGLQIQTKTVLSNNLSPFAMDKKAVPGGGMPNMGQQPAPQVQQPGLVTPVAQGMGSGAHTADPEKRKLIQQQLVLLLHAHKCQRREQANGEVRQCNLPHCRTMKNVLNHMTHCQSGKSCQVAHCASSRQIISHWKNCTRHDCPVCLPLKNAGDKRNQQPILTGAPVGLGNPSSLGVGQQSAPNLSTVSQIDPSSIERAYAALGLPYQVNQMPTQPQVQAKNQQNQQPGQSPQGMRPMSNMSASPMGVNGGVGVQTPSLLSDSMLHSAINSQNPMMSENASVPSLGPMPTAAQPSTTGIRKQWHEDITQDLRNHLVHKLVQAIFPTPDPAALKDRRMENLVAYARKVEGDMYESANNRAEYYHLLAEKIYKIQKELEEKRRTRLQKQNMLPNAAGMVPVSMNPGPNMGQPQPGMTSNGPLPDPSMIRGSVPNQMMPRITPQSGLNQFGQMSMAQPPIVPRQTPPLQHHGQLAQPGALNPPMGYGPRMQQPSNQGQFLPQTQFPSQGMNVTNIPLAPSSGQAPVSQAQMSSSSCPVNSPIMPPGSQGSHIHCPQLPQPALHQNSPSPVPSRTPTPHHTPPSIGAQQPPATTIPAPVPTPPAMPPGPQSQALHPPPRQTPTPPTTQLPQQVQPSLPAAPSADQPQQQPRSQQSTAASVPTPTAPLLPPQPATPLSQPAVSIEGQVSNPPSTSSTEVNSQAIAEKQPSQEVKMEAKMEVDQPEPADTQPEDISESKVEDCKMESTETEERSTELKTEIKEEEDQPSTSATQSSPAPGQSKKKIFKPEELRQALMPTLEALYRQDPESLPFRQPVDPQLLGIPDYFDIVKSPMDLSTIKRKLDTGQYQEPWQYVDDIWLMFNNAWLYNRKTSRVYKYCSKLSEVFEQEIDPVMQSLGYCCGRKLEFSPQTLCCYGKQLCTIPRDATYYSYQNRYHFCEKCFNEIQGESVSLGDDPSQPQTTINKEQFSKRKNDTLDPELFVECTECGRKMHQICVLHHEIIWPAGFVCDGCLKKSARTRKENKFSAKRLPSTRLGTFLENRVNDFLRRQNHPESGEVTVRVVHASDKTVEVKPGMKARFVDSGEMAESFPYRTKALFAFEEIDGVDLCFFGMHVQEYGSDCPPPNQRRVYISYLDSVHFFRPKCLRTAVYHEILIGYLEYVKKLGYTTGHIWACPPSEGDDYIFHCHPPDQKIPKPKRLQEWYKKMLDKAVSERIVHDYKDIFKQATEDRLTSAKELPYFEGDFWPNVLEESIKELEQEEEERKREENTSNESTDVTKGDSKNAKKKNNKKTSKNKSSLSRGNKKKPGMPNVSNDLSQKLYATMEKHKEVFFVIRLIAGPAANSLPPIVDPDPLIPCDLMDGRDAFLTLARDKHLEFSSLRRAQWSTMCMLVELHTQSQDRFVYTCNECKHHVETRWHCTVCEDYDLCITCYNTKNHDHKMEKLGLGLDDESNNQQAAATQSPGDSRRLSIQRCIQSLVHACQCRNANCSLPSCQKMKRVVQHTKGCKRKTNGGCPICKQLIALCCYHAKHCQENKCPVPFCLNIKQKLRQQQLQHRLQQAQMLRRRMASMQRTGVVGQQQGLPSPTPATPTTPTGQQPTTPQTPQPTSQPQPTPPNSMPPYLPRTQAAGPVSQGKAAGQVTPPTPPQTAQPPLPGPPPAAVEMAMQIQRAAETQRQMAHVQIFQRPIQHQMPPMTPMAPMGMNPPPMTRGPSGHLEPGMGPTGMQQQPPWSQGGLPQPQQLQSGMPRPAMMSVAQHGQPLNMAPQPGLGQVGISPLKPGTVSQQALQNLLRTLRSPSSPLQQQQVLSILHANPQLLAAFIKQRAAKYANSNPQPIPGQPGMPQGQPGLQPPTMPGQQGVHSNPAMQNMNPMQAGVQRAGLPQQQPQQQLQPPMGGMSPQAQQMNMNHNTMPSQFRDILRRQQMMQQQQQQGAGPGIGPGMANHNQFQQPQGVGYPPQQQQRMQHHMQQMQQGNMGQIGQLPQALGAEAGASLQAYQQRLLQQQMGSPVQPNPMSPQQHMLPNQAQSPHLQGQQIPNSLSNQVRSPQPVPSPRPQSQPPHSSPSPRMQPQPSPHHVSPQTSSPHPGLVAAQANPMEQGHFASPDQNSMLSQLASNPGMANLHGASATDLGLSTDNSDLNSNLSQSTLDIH
Chain of Protein cereblon/Histone acetyltransferase p300 (Homo sapiens) (Q96SW2 whole entry partner): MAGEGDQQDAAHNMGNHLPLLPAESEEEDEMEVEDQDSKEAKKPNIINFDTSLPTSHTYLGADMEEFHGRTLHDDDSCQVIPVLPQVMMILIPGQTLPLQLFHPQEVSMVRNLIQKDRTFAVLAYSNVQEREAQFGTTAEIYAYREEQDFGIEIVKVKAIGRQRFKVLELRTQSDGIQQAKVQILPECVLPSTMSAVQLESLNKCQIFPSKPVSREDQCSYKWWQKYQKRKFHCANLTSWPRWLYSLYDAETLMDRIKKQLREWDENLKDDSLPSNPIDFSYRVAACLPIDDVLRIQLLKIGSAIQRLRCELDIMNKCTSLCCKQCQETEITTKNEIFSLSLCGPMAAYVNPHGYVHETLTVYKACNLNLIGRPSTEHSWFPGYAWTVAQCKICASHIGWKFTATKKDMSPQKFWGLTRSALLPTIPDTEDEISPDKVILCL

MOLM-13 [3] = assay: Antiproliferative activity against human MOLM-13 cells incubated for 72 hrs by Cell-Titer Glo assay; conditions: MOLM-13, 72 h
[4] = Antiproliferative activity against human MOLM16 cells incubated for 72 hrs by Cell-Titer Glo assay; conditions: MOLM16, 72 h
MV4-11 [5] = assay: Downregulation of c-Myc protein level in human MV4-11 cells at 50 nM incubated for 24 hrs by Western blotting analysis; format: functional, cell-based
MOLM-13 [6] = assay: Downregulation of c-Myc protein level in human MOLM-13 cells at 50 nM incubated for 24 hrs by Western blotting analysis; format: functional, cell-based
MOLM-16 = assay: Downregulation of c-Myc protein level in human MOLM16 cells at 50 nM incubated for 24 hrs by Western blotting analysis; format: functional, cell-based

Compound | IC50 (MV4-11 [1]) [nM] | Activity [2] | other results
Cc1noc(C)c1-c1ccc2c(c1)nc([C@@H]1CCCC(=O)N1c1ccc(F)c(F)c1)n2C1CCN(CC(=O)NCCCCCCCCNc2cccc3c2C(=O)N(C2CCC(=O)NC2=O)C3=O)CC1 (stereo not given in full) | 218 | Active | –
Cc1noc(C)c1-c1ccc2c(c1)nc([C@@H]1CCCC(=O)N1c1ccc(F)c(F)c1)n2C1CCN(CC(=O)NCCC2CCN(c3cccc4c3C(=O)N(C3CCC(=O)NC3=O)C4=O)CC2)CC1 (stereo not given in full) | 1170 | – | –
Cc1noc(C)c1-c1ccc2c(c1)nc([C@@H]1CCCC(=O)N1c1ccc(F)c(F)c1)n2C1CCN(CC(=O)Nc2ccc(CC3CCN(c4cccc5c4C(=O)N(C4CCC(=O)NC4=O)C5=O)CC3)cc2)CC1 (stereo not given in full) | 273 | Active | –
Cc1noc(C)c1-c1ccc2c(c1)nc([C@@H]1CCCC(=O)N1c1ccc(F)c(F)c1)n2C1CCN(CC(=O)NCCOCCOCCOCCNc2cccc3c2C(=O)N(C2CCC(=O)NC2=O)C3=O)CC1 (stereo not given in full) | 2020 | – | –
Cc1noc(C)c1-c1ccc2c(c1)nc([C@@H]1CCCC(=O)N1c1ccc(F)c(F)c1)n2C1CCN(CC(=O)NC2CCN(c3cccc4c3C(=O)N(C3CCC(=O)NC3=O)C4=O)CC2)CC1 (stereo not given in full) | 1740 | – | –
Cc1noc(C)c1-c1ccc2c(c1)nc([C@@H]1CCCC(=O)N1c1ccc(F)c(F)c1)n2C1CCN(CC(=O)NCCOCCOCCNc2cccc3c2C(=O)N(C2CCC(=O)NC2=O)C3=O)CC1 (stereo not given in full) | 1680 | – | –
Cc1noc(C)c1-c1ccc2c(c1)nc([C@@H]1CCCC(=O)N1c1ccc(F)c(F)c1)n2C1CCN(CC(=O)N2CCN(CCNc3cccc4c3C(=O)N(C3CCC(=O)NC3=O)C4=O)CC2)CC1 (stereo not given in full) | 223 | inactive | –
Cc1noc(C)c1-c1ccc2c(c1)nc([C@@H]1CCCC(=O)N1c1ccc(F)c(F)c1)n2C1CCN(CC(=O)N2CCN(c3cccc4c3C(=O)N(C3CCC(=O)NC3=O)C4=O)CC2)CC1 (stereo not given in full) | 1700 | – | –
Cc1noc(C)c1-c1ccc2c(c1)nc([C@@H]1CCCC(=O)N1c1ccc(F)c(F)c1)n2C1CCN(CC(=O)NCCCCNc2ccc3c(c2)C(=O)N(C2CCC(=O)NC2=O)C3=O)CC1 (stereo not given in full) | 2210 | inactive | –
Cc1noc(C)c1-c1ccc2c(c1)nc([C@@H]1CCCC(=O)N1c1ccc(F)c(F)c1)n2C1CCN(CC(=O)Nc2ccc(C3CCN(c4cccc5c4C(=O)N(C4CCC(=O)NC4=O)C5=O)CC3)cc2)CC1 (stereo not given in full) | 30.1 | Active | –
Cc1noc(C)c1-c1ccc2c(c1)nc([C@@H]1CCCC(=O)N1c1ccc(F)c(F)c1)n2C1CCN(CC(=O)NCCCCCCNc2cccc3c2C(=O)N(C2CCC(=O)NC2=O)C3=O)CC1 (stereo not given in full) | 405 | Active | –
Cc1noc(C)c1-c1ccc2c(c1)nc([C@@H]1CCCC(=O)N1c1ccc(F)c(F)c1)n2C1CCN(C)CC1 | 165 | – | –
Cc1noc(C)c1-c1ccc2c(c1)nc([C@@H]1CCCC(=O)N1c1ccc(F)c(F)c1)n2C1CCN(CC(=O)NCCCCCCCNc2cccc3c2C(=O)N(C2CCC(=O)NC2=O)C3=O)CC1 (stereo not given in full) | 525 | Active | –
Cc1noc(C)c1-c1ccc2c(c1)nc([C@@H]1CCCC(=O)N1c1ccc(F)c(F)c1)n2C1CCN(CC(=O)NCCCCCNc2ccc3c(c2)C(=O)N(C2CCC(=O)NC2=O)C3=O)CC1 (stereo not given in full) | 1010 | inactive | –
Cc1noc(C)c1-c1ccc2c(c1)nc([C@@H]1CCCC(=O)N1c1ccc(F)c(F)c1)n2C1CCN(CC(=O)Nc2ccc(-c3ccc(CNc4cccc5c4C(=O)N(C4CCC(=O)N(C)C4=O)C5=O)cc3)nc2)CC1 (stereo not given in full) | 86.7 | – | IC50 (MOLM-13 [3]): > 1000 nM; IC50 [4]: 200 nM
Cc1noc(C)c1-c1ccc2c(c1)nc([C@@H]1CCCC(=O)N1c1ccc(F)c(F)c1)n2C1CCN(CC(=O)NCCCCCCNc2ccc3c(c2)C(=O)N(C2CCC(=O)NC2=O)C3=O)CC1 (stereo not given in full) | 1020 | inactive | –
Cc1noc(C)c1-c1ccc2c(c1)nc([C@@H]1CCCC(=O)N1c1ccc(F)c(F)c1)n2C1CCN(CC(=O)NCCNc2ccc3c(c2)C(=O)N(C2CCC(=O)NC2=O)C3=O)CC1 (stereo not given in full) | 1800 | inactive | –
Cc1noc(C)c1-c1ccc2c(c1)nc([C@@H]1CCCC(=O)N1c1ccc(F)c(F)c1)n2C1CCN(CC(=O)Nc2ccc(-c3ccc(CNc4cccc5c4C(=O)N(C4CCC(=O)NC4=O)C5=O)cc3)cc2)CC1 (stereo not given in full) | 5.7 | – | IC50 (MOLM-13 [3]): 137 nM; Activity (MV4-11 [5]): Active; IC50 [4]: 14.4 nM; Activity (MOLM-13 [6]): Active; Activity (MOLM-16): Active

Compound | IC50 (MV4-11 [1]) [nM] | Activity [2] | other results
Cc1noc(C)c1-c1ccc2c(c1)nc([C@@H]1CCCC(=O)N1c1ccc(F)c(F)c1)n2C1CCN(CC(=O)NCCCC#Cc2cccc3c2C(=O)N(C2CCC(=O)NC2=O)C3=O)CC1 (stereo not given in full) | 1720 | – | –
Cc1noc(C)c1-c1ccc2c(c1)nc([C@@H]1CCCC(=O)N1c1ccc(F)c(F)c1)n2C1CCN(CC(=O)NCC#Cc2cccc3c2C(=O)N(C2CCC(=O)NC2=O)C3=O)CC1 (stereo not given in full) | 1140 | – | –
Cc1noc(C)c1-c1ccc2c(c1)nc([C@@H]1CCCC(=O)N1c1ccc(F)c(F)c1)n2C1CCN(CC(=O)NCCCCCNc2cccc3c2C(=O)N(C2CCC(=O)NC2=O)C3=O)CC1 (stereo not given in full) | 464 | Active | –
Cc1noc(C)c1-c1ccc2c(c1)nc([C@@H]1CCCC(=O)N1c1ccc(F)c(F)c1)n2C1CCN(CC(=O)NCCOCCNc2ccc3c(c2)C(=O)N(C2CCC(=O)NC2=O)C3=O)CC1 (stereo not given in full) | 1700 | inactive | –
Cc1noc(C)c1-c1ccc2c(c1)nc([C@@H]1CCCC(=O)N1c1ccc(F)c(F)c1)n2C1CCN(CC(=O)Nc2ccc(CCNc3cccc4c3C(=O)N(C3CCC(=O)NC3=O)C4=O)cc2)CC1 (stereo not given in full) | 132 | Active | –
Cc1noc(C)c1-c1ccc2c(c1)nc([C@@H]1CCCC(=O)N1c1ccc(F)c(F)c1)n2C1CCN(CC(=O)NCCOCCOCCOCCNc2ccc3c(c2)C(=O)N(C2CCC(=O)NC2=O)C3=O)CC1 (stereo not given in full) | > 10000 | inactive | –
Cc1noc(C)c1-c1ccc2c(c1)nc([C@@H]1CCCC(=O)N1c1ccc(F)c(F)c1)n2C1CCN(CC(=O)N2CCC(Nc3cccc4c3C(=O)N(C3C(=O)CCNC3=O)C4=O)CC2)CC1 (stereo not given in full) | 1760 | – | –
Cc1noc(C)c1-c1ccc2c(c1)nc([C@@H]1CCCC(=O)N1c1ccc(F)c(F)c1)n2C1CCN(CC(=O)NCCOCCOCCNc2ccc3c(c2)C(=O)N(C2CCC(=O)NC2=O)C3=O)CC1 (stereo not given in full) | 6060 | inactive | –
Cc1noc(C)c1-c1ccc2c(c1)nc([C@@H]1CCCC(=O)N1c1ccc(F)c(F)c1)n2C1CCN(CC(=O)Nc2ccc(CNc3cccc4c3C(=O)N(C3CCC(=O)NC3=O)C4=O)cc2)CC1 (stereo not given in full) | 84.8 | Active | –
Cc1noc(C)c1-c1ccc2c(c1)nc([C@@H]1CCCC(=O)N1c1ccc(F)c(F)c1)n2C1CCN(CC(=O)NCC2CCN(c3cccc4c3C(=O)N(C3CCC(=O)NC3=O)C4=O)CC2)CC1 (stereo not given in full) | 980 | – | –
Cc1noc(C)c1-c1ccc2c(c1)nc([C@@H]1CCCC(=O)N1c1ccc(F)c(F)c1)n2C1CCN(CC(=O)N2CCC(N3CCC(Nc4cccc5c4C(=O)N(C4CCC(=O)NC4=O)C5=O)CC3)CC2)CC1 (stereo not given in full) | 112 | – | –
Cc1noc(C)c1-c1ccc2c(c1)nc([C@@H]1CCCC(=O)N1c1ccc(F)c(F)c1)n2C1CCN(CC(=O)N2CCC(CN3CCN(c4cccc5c4C(=O)N(C4CCC(=O)NC4=O)C5=O)CC3)CC2)CC1 (stereo not given in full) | 266 | inactive | –
Cc1noc(C)c1-c1ccc2c(c1)nc([C@@H]1CCCC(=O)N1c1ccc(F)c(F)c1)n2C1CCN(CC(=O)NCCC#Cc2cccc3c2C(=O)N(C2CCC(=O)NC2=O)C3=O)CC1 (stereo not given in full) | 1800 | – | –
Cc1noc(C)c1-c1ccc2c(c1)nc([C@@H]1CCCC(=O)N1c1ccc(F)c(F)c1)n2C1CCN(CC(=O)NCCCNc2ccc3c(c2)C(=O)N(C2CCC(=O)NC2=O)C3=O)CC1 (stereo not given in full) | 2640 | inactive | –
Cc1noc(C)c1-c1ccc2c(c1)nc([C@@H]1CCCC(=O)N1c1ccc(F)c(F)c1)n2C1CCN(CC(=O)NCCOCCNc2cccc3c2C(=O)N(C2CCC(=O)NC2=O)C3=O)CC1 (stereo not given in full) | 1900 | – | –
Cc1noc(C)c1-c1ccc2c(c1)nc([C@@H]1CCCC(=O)N1c1ccc(F)c(F)c1)n2C1CCN(CC(=O)Nc2cnc(-c3ccc(CNc4cccc5c4C(=O)N(C4CCC(=O)N(C)C4=O)C5=O)cc3)nc2)CC1 (stereo not given in full) | 44.2 | – | IC50 (MOLM-13 [3]): > 1000 nM; IC50 [4]: 45.8 nM
Cc1noc(C)c1-c1ccc2c(c1)nc([C@@H]1CCCC(=O)N1c1ccc(F)c(F)c1)n2C1CCN(CC(=O)NCc2ccc(CNc3cccc4c3C(=O)N(C3CCC(=O)NC3=O)C4=O)cc2)CC1 (stereo not given in full) | 1220 | Active | –
Cc1noc(C)c1-c1ccc2c(c1)nc([C@@H]1CCCC(=O)N1c1ccc(F)c(F)c1)n2C1CCN(CC(=O)NCCCCCCCCCCNc2cccc3c2C(=O)N(C2CCC(=O)NC2=O)C3=O)CC1 (stereo not given in full) | 606 | Active | –
